The test system of experiment [1] is TR beta-UAS-bla HEK 293T Cells. The experiment is described as follows: TR cell-based agonist detection, β-lactamase reporter (LiveBLAzer FRET B/G), TR beta. The procedure:
A method for testing a THR-α/β activation activity of a compound by an in-vitro cell level was as follows.
Compounds were transferred to a 384-well plate by an ECHO liquid workstation, and each compound was diluted by 3 times with 10 gradient concentrations, which was in triplicate. 1.5×10^4 DMEM-cultured cells (TR beta-UAS-bla HEK 293T Cells) or 1.0×10^4 TR alpha-UAS-bla HEK 293T Cells were placed in the 384-well plate. HEK 293T-TR beta was incubated in an incubator for 16 hours, and HEK 293T-TR alpha was incubated in an incubator for 24 hours. A LiveBLAzer™-FRET B/G (CCF4-AM) substrate was added into the cell plate to detect expression of β-lactamase in cells, and under excitation of 409 nm, a product produced fluorescence with a wavelength of 447 nm. When the β-lactamase was not expressed, under excitation of 409 nm, fluorescence with a wavelength of 520 nm was directly produced through FRET. Combination between the compound and the protein was determined by detecting a ratio of the two kinds of fluorescence (blue/green, 460 nm/530 nm), thus calculating EC50 of the compound. […] Calculation of a factor Z (greater than 0.5) would be used for monitoring a stability of each experiment.

For experiment [2], the target named is T1, THR-β ligand-binding domain (H6-THR-β) (Homo sapiens, UniProt P10828).
T1 construct: made in house; host or cells: Escherichia coli BL21 (DE3), vector pET28a
T1 sequence (P10828 217-461 limits assumed): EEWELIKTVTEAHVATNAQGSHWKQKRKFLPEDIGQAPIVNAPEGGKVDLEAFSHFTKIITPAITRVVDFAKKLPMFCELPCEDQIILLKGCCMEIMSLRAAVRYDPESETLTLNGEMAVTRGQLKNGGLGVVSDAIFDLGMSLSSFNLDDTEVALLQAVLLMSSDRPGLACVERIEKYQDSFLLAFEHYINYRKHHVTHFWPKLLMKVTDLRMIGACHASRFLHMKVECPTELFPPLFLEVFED
T1 sequence (P19793 225-462 partner limits assumed): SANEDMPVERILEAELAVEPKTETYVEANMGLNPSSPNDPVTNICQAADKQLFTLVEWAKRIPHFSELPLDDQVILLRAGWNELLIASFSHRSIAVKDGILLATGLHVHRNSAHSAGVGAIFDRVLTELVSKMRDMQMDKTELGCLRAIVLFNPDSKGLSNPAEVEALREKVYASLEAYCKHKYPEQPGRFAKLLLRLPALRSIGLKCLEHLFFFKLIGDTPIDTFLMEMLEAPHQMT
T1 sequence (Q15596 679-703 partner limits assumed): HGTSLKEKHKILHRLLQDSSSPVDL
The experiment is described as follows: Co-activated peptide recruitment test of THR-β/RXR/GRIP1 (TR_LBD agonist detection, HTRF). It is filed as biochemical. Here is the method: A ligand binding domain of THR-β (amino acids 148-410) (H6-THR-β) and a ligand binding domain of THR-α (amino acids 202-461) (H6-TRα) were cloned into E. coli expression vector pET28a (Novagen, Milwaukee, Wis.) containing N-terminal six His sequences. The resulting recombinant six-His-tagged protein was produced in E. coli BL21(DE3) cells. The cells were grown in Terrific Broth (self-used self-prepared Bacto tryptone (3.3%, w/v), Difico yeast extract (2.0%, w/v) and NaCl (0.5%, w/v) medium), incubated at 25° C. for 24 hours using a shake flask in 0.2 mM IPTG, harvested or dissolved with 5 volumes of buffer A (0.05 M Tris, 0.3 M NaCl, 1% W/V betaine, 0.01 M imidazole, 0.02 M b-mercaptoethanol, pH 8.0). Lysozyme (1.0 mg/ml, Sigma) and CompleteProtease Inhibitor Cocktail (Roche Diagnostics Gmbh) were added to the slurry and the solution was sonicated for one minute and 5 times at 4° C. The suspension was centrifuged at 127,300 RCF for 2 hours in a Ti45 Beckmann rotor and the supernatant was loaded onto an NI NTAAgarose (Quigen 30210) column. After washing with the buffer A, […] or H6-THR-α was eluted with the buffer A containing 0.25 M imidazole.
30 microliters of H6-THR-β (50 nM) or H6-THR-α in 50 mM Hepes, pH 7.0, 1 mM DTT, 0.05% NP40 and 0.2 mg/ml BSA (binding buffer) were mixed with an equal volume of EE-RxRα (50 nM) in the binding buffer. […] Aliquot ([…]) was transferred to a 384-well black microtiter plate. HTRF signal was read on a Victor5 reader (PerkinElmer Life and Analytical Sciences). EC50 was calculated.
Gene clones expressing a ligand-binding domain (amino acids 148-410) of THR-β (H6-THR-β) and a ligand-binding domain (amino acids 202-461) of THR-α (H6-THR-α) were inserted into an Escherichia coli expression vector pET28a, and the expression vector contained one N-terminal 6-His sequence. The expression vector was introduced into an Escherichia coli BL21 (DE3) strain to produce a recombinant protein with a His tag. […] After finishing culturing, a bacterium in culture was collected, and the collected bacterium was resuspended with a lysis solution (0.05 M Tris, 0.3 M NaCl, 1% W/V betaine, 0.01 M imidazole, 0.02 M β-mercaptoethanol, and pH 8.0) with a volume 5 times that of the bacterium, and lysozyme and protease inhibitors were added at the same time, the treated bacteria was subjected to ultrasonic lysis (5 times per minute) in ice bath (4° C.). A lysed suspension was centrifuged at 127300 RCF for 2 hours, a supernatant was loaded on a NI_NTA agarose (Quigen 30210) column, and after washing with a buffer A, an H6-TRβ or H6-TRα protein was eluted with the buffer A containing 0.25 M imidazole.
A human retinol X receptor (amino acid 225-462) (RxRα) was subjected to engineering modification, so that an N-terminal of the human retinol X receptor had His6 and EE(EFMPME) tags, and then the human retinol X receptor was cloned into a pACYC vector, and produced a His6 EEtagged protein in Escherichia coli. IPTG with a final concentration of 0.1 mM was added into the culture medium for induction, and cultured in a shaking flask at 18° C. for 18 hours. After finishing culturing, a bacterium in culture was collected, and the collected bacterium was re-suspended with a lysis solution (0.05 M Tris, 0.3 M NaCl, 1% W/V betaine, 0.01 M imidazole, 0.02 β-mercaptoethanol, and pH 8.0) with a volume 5 times that of the bacterium, lysozyme and protease inhibitors were added at the same time, and stirred at 4° C. for 30 minutes. Then, a suspension was subjected to an ultrasonic treatment at 4° C. for 30 seconds for 5 times. The suspension was collected, and centrifuged at 12000 RCF for 20 minutes. A supernatant was collected, and the supernatant was filtered with a membrane with a pore size of 0.45 μm, and then added with 0.5% NP-40.
(In general: TR-FRET usually uses a lanthanide donor and a delayed reading to cut background.)

Experimental findings from US12630536B2, “Cyanotriazine derivative, preparation method therefor, and application thereof” (Chengdu Fanxi Biopharma Co., LTD., priority 2020, dated 2026) are described below.

On to `Cn1cnc2ccc(Oc3c(Br)cc(-n4nc(C#N)c(=O)[nH]c4=O)cc3Br)cc21` [Compound 1, 2-(3,5-dibromo-4-((1-methyl-1H-benzo[d]imidazol-6-yl)oxy)phenyl)-3,5-dioxo-2,3,4,5-tetra hydro-1,2,4-triazine-6-carbonitrile], for which, in experiment [1] (Homo sapiens, HEK-293T, 16 h, TR_cell-based agonist, TR_β, read-out: Maximum activity ratio (A460/A530)), the Emax stood at 41.1%. Moreover, the EC50 stood at 577 nM in experiment [1] (Homo sapiens, Detection of TR_cell-based agonist, HEK 293T-TR beta, 16 hours, read-out: TR_β_EC50) and 4.96 nM in experiment [2] (Detection of TR_LBD agonist, read-out: TR_beta_EC50). The “Measurement of cpd/T3 (maximum ratio)” value in experiment [1] (TR_cell-based agonist, TR_β, maximum relative to T3) worked out at 7.5%; in experiment [2] (TR_LBD agonist, TR_β, maximum relative to T3), 73.4%. The α/β is on record as 7.49 in experiment [1] (TR_cell-based agonist, ratio TR_α EC50 / TR_β EC50) and 7.13 in experiment [2] (TR_LBD agonist, ratio TR_α EC50 / TR_β EC50). Besides, in experiment [2] (TR_LBD agonist, TR_β), the “Maximum activity ratio (A520/A495)” value is 4.02.
